Assay results as given in ChEMBL document CHEMBL4627395, “Cytotoxic Heptaketides from the Endolichenic Fungus Ulospora bilgramii” (J Nat Prod, 2020).

Experiments:
Type in all cases: functional, cell-based
KB = assay: Cytotoxicity against human KB cells incubated for 48 hrs by MTT assay
MCF7 = assay: Cytotoxicity against human MCF7 cells incubated for 48 hrs by MTT assay; settings: MCF7, 48 h
A549 = assay: Cytotoxicity against human A549 cells incubated for 48 hrs by MTT assay; settings: A549, 48 h

Structure (SMILES)	IC50 (KB)	IC50 (MCF7)	IC50 (A549)
COc1cc(O)c2c(c1)C(=O)c1c(coc1[C@H](C)O)C2=O	> 40 µM	> 40 µM	> 40 µM
COc1cc(O)c2c(c1)C(=O)C1=C(COC(C)=C1)C2=O	> 40 µM	> 40 µM	> 40 µM
COc1cc(O)c2c(c1)C(=O)C1=C(COC(C)(O)C1)C2=O (stereo not given)	> 40 µM	> 40 µM	> 40 µM
COC1=CC(=O)[C@H](O)[C@H](C)C12Oc1cccc3cccc(c13)O2	> 40 µM	> 40 µM	> 40 µM
COc1cc(O)c2c(c1)C(=O)C1=C(C2=O)C(O)OC(C)=C1 (stereo not given) [ASCOMYCONE B]	> 40 µM	> 40 µM	> 40 µM
COc1cc(O)c2c(c1)[C@@H](O)[C@H]1C[C@H](C)OC=C1C2=O	> 40 µM	> 40 µM	> 40 µM
COc1cc(O)c2c(c1)C(=O)C1=C(C2=O)[C@](C)(OC)OCC1	16.6 µM	11.6 µM	28.2 µM
COc1cc(O)c2c(c1)[C@H](O)[C@H](C)CC2=O	> 40 µM	> 40 µM	> 40 µM
COc1cc(O)c2c(c1)C(=O)C1=C(C2=O)C(OC)OC(C)=C1 (stereo not given) [ASCOMYCONE A]	> 40 µM	> 40 µM	> 40 µM
COc1cc(C)cc(O)c1	> 40 µM	> 40 µM	> 40 µM
